Data set [1] is described as follows: Quantum yield in the solid state. The data set is classed as physicochemical. An excerpt: IVPI-2 is able to stain mitochondria in healthy live cancer cells. However, when Δψm decreases, IVPI-2 migrates into nucleolus. Since IVPI-2 is target-changeable according to the change of mitochondrial physiology, the chemical structure of IVPI-2 was modified in order to enhance the mitochondria to nucleolus migration. Iodide ion is a well-known effective fluorescent quencher due to its heavy-atom effect. The quantum yield of IVP-02 in the solid state is 4.3%, which is about 3 times than that of IVPI-02 (1.3%). An Exemplary synthetic route to certain embodiments of the compounds described herein is depicted in Scheme 1.

The test system of data set [2] is cancer cells (A549 and HeLa) co-cultured with normal cells (COS7 and HLF). The data set is described as follows: CLSM imaging of cancer cells co-cultured with normal cells. The note with it: A549 co-cultured with COS7, 2 μM, 30 min. The data set is classed as cell-based. The protocol:
(§1) FIG. 5 CLSM images of live cancer cells (A549 and HeLa) co-cultured with normal cells (COS7 and HLF) (A), and the images of A549 and HLF cells seeded on different cover glasses (Scale bar=20 μm) (B) stained with 2 μM IVP-02 for 30 min (Scale bar=50 μm), respectively. λex=488 nm, λem=500-650 nm.
(§2) FIG. 10 CLSM images of live cancer cells (A549) co-cultured with normal cells (COS7) (A), and the images of A549 and HLF cells seeded on different cover glasses Scale bar=20 μm (B) stained with 2 μM IVP-02, 04, 06, 22, 42, and 62 for 30 min Scale bar=50 μm, respectively. (The first column in B is the same as FIG. 3B) λex=488 nm, λem=500-650 nm.
FIG. 11 CLSM images of live cancer cells (HeLa) co-cultured with normal cells (COS7), stained with 2 μM IVP-02, 04, 06, 22, 42, and 62 for 30 min, respectively. λex=488 nm, λem=500-650 nm. Scale bar=20 μm.
FIG. 12 CLSM images of live cancer cells (A549) co-cultured with normal cells (HLF), stained with 2 μM IVP-02, 04, 06, 22, 42, and 62 for 30 min, respectively. λex=488 nm, λem=500-650 nm. Scale bar=20 μm.
(§3) The bioimaging properties of IVP-02 in live cells were investigated by confocal laser scanning microscopy (CLSM). Cancer cells (A549 and HeLa) and normal cells (COS7 and HLF) were stained with IVP-02, respectively. […] So IVP-02 holds the high potential to differentiate cancer and normal cells. To verify this speculation, cancer and normal cells were co-cultured and stained with IVP-02. […] To precisely confirm the selectivity of IVP-02 to cancer cells, cancer cells A549 and normal cells HLF (A549 and HLF are both human lung cells) were seeded on different cover glasses, respectively. Then the two cover glasses were put in the same dish and stained with IVP-02 at the same time.
(§4) Cancer cells A549 co-cultured with normal cells COS7 were stained with these molecules, respectively. […] Then HeLa cells co-cultured with COS7 cells (FIG. 11), and A549 cells co-cultured with HLF cells (FIG. 12) were also stained with these molecules, the results were similar with that in A549 cells co-cultured with COS7 cells. In addition to co-culturing, A549 cells and HLF cells were also seeded on different cover glasses and stained with these molecules. […] Based on the imaging results above, it can be concluded that the selectivity of these IVP molecules to cancer cells is also based on the length of alkyl chain at pyridinium salt side. Lengthening the alkyl chain at the pyridinium salt side will eliminate the selectivity to cancer cells.

Data set [3] has as its system mitochondria in HeLa and A549 cells. In words: Co-stain with mitochondrial probe MitoTracker Deep Red FM (MTDR). It is filed as cell-based. The note with it: A549 and HeLa, 2 μM dye, co-stain 0.2 μM MTDR. The protocol: FIG. 6 CLSM images of live HeLa and A549 cells stained with 2 μM IVP-02 and 0.2 μM MTDR, respectively. IVP-02: λex=488 nm, λem=500-650 nm; MTDR: λex=640 nm, λem=650-700 nm. Scale bar=20 μm.
In the above pictures, filamentous structures in cytoplasm of cancer cells were observed, which were typical morphology of mitochondria. Then co-stain experiments with commercial mitochondrial probe MitoTracker™ Deep Red FM (MTDR) were carried out (FIG. 6).
It was speculated that the membrane permeability of the probe was a key factor for its selectivity to cancer cells, since the plasma membrane of cancer cells was reported to be more permeable than normal cells. Consequently, IVP-02 was modified by lengthening the alkyl chain at the pyridine salt side and indole side, respectively, to tune the membrane permeability. The synthetic route to these new IVP molecules is depicted in Scheme 1. Their chemical structures were fully characterized by ^1H NMR, ^13C NMR, and ^19F NMR. Then cancer cells A549 were stained with the five new molecules, respectively. […] The co-stain experiments with MTDR also confirmed their location in mitochondria in A549 cells in FIG. 7C. In addition to A549 cells, the same experiments were also carried in HeLa cells (FIGS. 8 and 9).

In data set [4] the test system is A549 cells. In words: Mitochondrion-nucleolus migration on CCCP treatment, A549 cells. It is filed as cell-based, human. The note with it: for migration back to mitochondria after removal of CCCP: A549, CCCP removed, fresh medium 5 min; for migration from mitochondria to nucleolus after addition of CCCP: A549, pre-stained 2 μM 30 min, 20 μM CCCP 5 min. The procedure:
FIG. 15 Live A549 cells (A) and live A549 co-cultured with COS 7 cells, live HeLa co-cultured with COS7 cells (B) were pre-stained with 2 μM IVP-02 for 30 min, and treated with 20 μM CCCP for 5 min. Then CCCP was removed away and fresh culture medium was added for another 5 min. λex=488 nm, λem=500-650 nm. Scale bar=20 μm.
FIG. 18 Live A549 cells were pre-stained with 2 μM IVP-04, 22, 42, 06, 62 for 30 min, and treated with 20 μM CCCP for 5 min. Then CCCP was removed away and fresh culture medium was added for another 5 min, respectively. λex=488 nm, λem=500-650 nm. Scale bar=20 μm.
(§5) Monitoring cell viability is a highly valuable task for the fundamental researches in biology, pathology, and medicine. Then we investigated whether IVP-02 could monitor cell viability. Δψm is a very important indicator to characterize cell viability. With the loss of cell viability, Δψm would decrease, while with the recovery of cell viability, Δψm would also recover to the normal level. […] Carbonyl cyanide m-chlorophenyl hydrazone (CCCP) is a type of protonophore and can cause rapid acidification of mitochondria by collapsing Δψm. Cancer cells A549 were pre-stained with IVP-02 for 30 min. In FIG. 15A, in the beginning, IVP-02 stained mitochondria clearly. […] Hydrogen peroxide (H2O2) can inhibit the oxidation respiratory chain that would cause the loss of cell viability. Then live A549 and HeLa cells were pre-stained with IVP-02, and treated with 10 mM H2O2.
(§6) In addition to IVP-02, we further investigated whether other IVP molecules could monitor the viability of cancer cells through mitochondrion-nucleolus migration was investigated. A549 cells were pre-stained with IVP-04, 22, 42, 06, and 62, respectively, and then CCCP was added.

Data set [5] has as its system HeLa cells. The data set is described as follows: Mitochondrion-nucleolus migration on CCCP treatment, HeLa cells. It is filed as cell-based. The note with it: pre-stained 2 μM 30 min, 20 μM CCCP 5 min. The protocol:
FIG. 16 Live HeLa cells were pre-stained with 2 μM IVP-02 for 30 min, and treated with 20 μM CCCP for 5 min. Then CCCP was removed away and fresh culture medium was added for another 5 min. λex=488 nm, λem=500-650 nm. Scale bar=20 μm.
FIG. 19 Live HeLa cells were pre-stained with 2 μM IVP-04, 22, 42, 06, 62 for 30 min, and treated with 20 μM CCCP for 5 min. Then CCCP was removed away and fresh culture medium was added for another 5 min, respectively. λex=488 nm, λem=500-650 nm. Scale bar=20 μm.
as §5, §6

In data set [6] the test system is RNA. In words: RNA fluorescence titration, Scatchard equation. The data set is classed as binding. The note with it: comparison in words. The text has this: FIG. 20 (A) Fluorescence titration (left) of IVP-02 with RNA and the fitted curve (right) according to Scatchard equation. (B) The binding mode of IVP-02 to RNA. (C) Binding constant (k) and binding energy (E) of IVP molecules to RNA.
FIG. 21 Fluorescence titration (left) of IVP-04, 22, 42, 06, and 62 with RNA and the fitted curve (middle) according to Scatchard equation, and the binding mode (right) of them to RNA.
Why IVP-06 and 62 cannot stain the nucleolus in cancer cells to a significant extent? On one hand, when IVP molecules located in mitochondria, in addition to the electrostatic interaction between the cation and inner membrane negative charge of mitochondria, the hydrophobic interaction between alkyl chain and phospholipids also existed. When Δψm decreased, although the electrostatic interaction weakened, the hydrophobic interaction still remained. IVP-06 and 62 have longer alkyl chain than the other four IVP molecules, so the hydrophobic interaction between IVP-06 and 62 and phospholipids is stronger than that of the other four IVP molecules. […] In FIGS. 20A and 21, with the increase of RNA concentration, the fluorescence intensity of all the molecules increases. […] In FIG. 20B and FIG. 21, IVP molecules bound to the minor grooves of RNA, and the binding energy (E) was calculated and summarized in FIG. 20C.

Data set [7] relates to A549 and HLF cells. The data set is described as follows: CLSM imaging of A549 and HLF cells seeded on different cover glasses in the same dish. It is filed as cell-based, human. The note with it: 2 μM, 30 min. The protocol: as §1, §2, §3, §4

The results in this text go back to patent US11965100B2, “Aggregation-induced emission luminogens useful for cancer cell discrimination and monitoring” (The Hong Kong University of Science and Technology, priority 2020, dated 2024).

As for `CC[n+]1ccc(/C=C/c2c[nH]c3ccccc23)cc1.[I-]` [IVPI-02, reference compound], in data set [1], the quantum yield is 1.3%.
`CCCCn1cc(/C=C/c2cc[n+](CC)cc2)c2ccccc21` [IVP-42]: the “staining of co-cultured cancer and normal cells” value in data set [2] was “only stain A549 cells”. For the same compound, in data set [3], the “mitochondrial staining in cancer cells” value was “can selectively stain mitochondria in cancer cells”. Further, in data set [4], the “migration back to mitochondria after removal of CCCP” value (“migration back to mitochondria” for short) was “could migrate back in mitochondria”; the “migration from mitochondria to nucleolus after addition of CCCP” value (shortened to “migration from mitochondria to nucleolus”) is “could enter nucleus and stain nucleolus”. For the same compound, the “nucleolus staining after addition of CCCP” value (“nucleolus staining” below) in data set [5] was “could stain nucleolus”.
On to `CCCCCCn1cc(/C=C/c2cc[n+](CC)cc2)c2ccccc21` [IVP-62], for which the “staining of co-cultured cancer and normal cells” value in data set [2] is “only stain A549 cells”. Besides, in data set [3], the “mitochondrial staining in cancer cells” value was “can selectively stain mitochondria in cancer cells”. Further, the “binding constant (k) to RNA” value in data set [6] is “lower than that of IVP-02, 04, 22, and 42”. Further, in data set [4], the “migration from mitochondria to nucleolus” value is “did not enter the nuclear to a substantial degree”. Moreover, the “nucleolus staining” value in data set [5] is listed as “cannot”.
As for `CCCC[n+]1ccc(/C=C/c2c[nH]c3ccccc23)cc1` [IVP-04], in data set [7], the “staining of A549 and HLF cells on different cover glasses” value was “could stain both A549 and HLF cells”. In addition, the “staining of co-cultured cancer and normal cells” value in data set [2] was “can stain both A549 and COS7 cells”. Besides, in data set [3], the “mitochondrial staining in cancer cells” value is recorded as “can selectively stain mitochondria in cancer cells”. In addition, in data set [4], the “migration back to mitochondria” value is “could migrate back in mitochondria”; the “migration from mitochondria to nucleolus” value was “could enter nucleus and stain nucleolus”. Moreover, the “nucleolus staining” value in data set [5] is reported as “could stain nucleolus”.
In the case of `CCn1cc(/C=C/c2cc[n+](CC)cc2)c2ccccc21` [IVP-22], in data set [2], the “staining of co-cultured cancer and normal cells” value is reported as “only stain A549 cells”. Besides, the “mitochondrial staining in cancer cells” value in data set [3] is reported as “can selectively stain mitochondria in cancer cells”. For the same compound, in data set [4], the “migration back to mitochondria” value is on record as “could migrate back in mitochondria”; the “migration from mitochondria to nucleolus” value was “could enter nucleus and stain nucleolus”. Further, in data set [5], the “nucleolus staining” value is “could stain nucleolus”.
In the case of `CCCCCC[n+]1ccc(/C=C/c2c[nH]c3ccccc23)cc1` [IVP-06], the “staining of A549 and HLF cells on different cover glasses” value in data set [7] was “could stain both A549 and HLF cells”. Further, the “staining of co-cultured cancer and normal cells” value in data set [2] was “can stain both A549 and COS7 cells”. Moreover, in data set [3], the “mitochondrial staining in cancer cells” value is on record as “can selectively stain mitochondria in cancer cells”. For the same compound, the “binding constant (k) to RNA” value in data set [6] was “lower than that of IVP-02, 04, 22, and 42”. The “migration from mitochondria to nucleolus” value in data set [4] is on record as “did not enter the nuclear to a substantial degree”. The “nucleolus staining” value in data set [5] is on record as “cannot”.
